Data from patent US7173063B1, “Topoisomerase poisons for the treatment of proliferative disorders” (Fred Hutchinson Cancer Research Center, priority 2000, dated 2007).

Assays:
[1] = test system: ACHN, SW620, A549, MDA-N; assay: Thymidine incorporation toxicity assay in four cancer derived cell lines; type: cell-based, human; details: for correlation between MDR1 activity and toxicity/sensitivity: A549, SW620, ACHN (MDR1 10, 31, 120); for toxicity in human cancer and vertebrate cells: FIG. 4
Experimental: Cell lines were grown at 37° C. in an atmosphere of 5% CO2. The chicken pre-B cell line DT40 and its derivatives (Bezzubova, et al., Cell 89: 185–93 (1997), Takata, et al., EMBO Journal 17: 5497–508 (1998), Yamaguchi-Iwai, et al., Molecular & Cellular Biology 18: 6430–5 (1998)) were grown in RPMI containing 10% fetal calf serum and 1% chicken serum. The remaining cell lines were grown in DMEM with 10% fetal calf serum.
Toxicity assays in mammalian cell lines were performed using tritiated thymidine incorporation as a measure of the number of viable cells. […] Drug toxicity was measured as follows:
Cells were plated at a density of 500 cells per well in opaque 96 well plates (Packard) in a volume of 135 μL per well of the appropriate media. The plates were incubated overnight to allow cell adherence. Seven two-fold dilutions of the test compounds were added in a volume of 15 μL per well in triplicate, and 15 μL of media containing an appropriate concentration of DMSO was added to control wells in triplicate. Plates were incubated at 37° C. for 96 hours. The media was then replaced with 100 μL per well of the appropriate media containing 2 μCi/mL of (methyl-^3H) thymidine (Amersham Pharmacia Biotech), then plates were incubated for a further 24 hours at 37° C. Cells were washed three times with PBS, then 100 μL per well of scintillant was added (Microscint 20, Packard), and sealed plates were counted in a microplate reader (Packard Topcount). For suspension chicken cells, (methyl-^3H) thymidine was added directly to the drug-containing media at a concentration of 20 μCi/mL (comprising one tenth of the media volume) and incubated overnight. The suspension cells were transferred to a UniFilter GF/C plate (Packard) and washed with PBS in a plate washer (Packard). After drying, 25 μL per well of scintillant (Microscint 20, Packard) was added, and sealed plates were counted. Toxicity is expressed as a percentage of the control counts. For experiments involving shorter exposures to compounds, cells were grown in the presence of compound for the appropriate time, then the media was replaced with fresh drug-free media, and incubation continued for the remainder of 96 hours, followed by the normal tritiated thymidine uptake and washing protocol.
A common mechanism of tumor resistance to chemotherapeutic agents is overexpression of the drug efflux protein MDR1 (Kane, et al., Advances in Drug Research 28: 182–252 (1996), Nooter, et al., Leukemia Research 18: 233–43 (1994)). MDR1 is overexpressed in many tumor derived cell lines (for instance see http://dtp.nci.nih.gov/), and its overexpression inversely correlates with sensitivity to certain compounds (Kane, et al., Advances in Drug Research 28: 182–252 (1996)).

[2] = molecular target: T1, purified Topo I (Homo sapiens, UniProt P11387); assay: In vitro assay for DNA strand-break formation in the presence of purified Topo I; type: biochemical; details: purified Topo I, in vitro; data not shown
T1 sequence (P11387 1-765): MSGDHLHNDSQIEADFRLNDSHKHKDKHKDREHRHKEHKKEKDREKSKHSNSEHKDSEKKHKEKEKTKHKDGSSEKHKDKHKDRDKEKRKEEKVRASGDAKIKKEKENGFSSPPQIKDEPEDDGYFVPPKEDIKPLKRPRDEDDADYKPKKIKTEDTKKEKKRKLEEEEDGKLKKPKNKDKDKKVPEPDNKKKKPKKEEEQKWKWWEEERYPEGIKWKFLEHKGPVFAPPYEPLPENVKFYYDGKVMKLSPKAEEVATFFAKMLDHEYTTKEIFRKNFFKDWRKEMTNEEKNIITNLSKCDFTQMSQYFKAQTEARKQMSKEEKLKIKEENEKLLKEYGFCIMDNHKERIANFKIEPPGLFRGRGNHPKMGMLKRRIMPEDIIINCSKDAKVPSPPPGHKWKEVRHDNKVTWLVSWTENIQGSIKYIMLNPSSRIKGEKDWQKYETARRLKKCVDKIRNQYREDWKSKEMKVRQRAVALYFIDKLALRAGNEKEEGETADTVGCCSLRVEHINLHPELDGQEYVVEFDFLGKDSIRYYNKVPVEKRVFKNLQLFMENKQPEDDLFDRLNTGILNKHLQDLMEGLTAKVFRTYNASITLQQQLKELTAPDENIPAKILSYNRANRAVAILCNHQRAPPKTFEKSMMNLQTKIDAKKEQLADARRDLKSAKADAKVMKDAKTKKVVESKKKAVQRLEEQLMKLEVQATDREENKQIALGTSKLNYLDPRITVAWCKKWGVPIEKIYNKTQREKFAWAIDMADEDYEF

Compound	relative sensitivity of ACHN and A549 [1]	correlation between MDR1 activity and toxicity/sensitivity [1]	toxicity in human cancer and vertebrate cells [1]	cell line against which most effective ([1]; four tumor derived cell lines)	strand-break induction [2]	differences in toxicity between the cell lines ([1]; four tumor derived cell lines)
O=c1c(Cl)c(Cl)cnn1CCCl [compound IIa]	ACHN is more sensitive than A549	No correlation	toxic in human cancer and vertebrate cells	most effective against the colon carcinoma derived cell line SW620	did not detect strand-break induction	
O=C(CCl)Nc1ccc(C(=O)N/N=C/c2ccc(Cl)cc2)cc1 [compound Ia]		No correlation	toxic in human cancer and vertebrate cells	most effective against the colon carcinoma derived cell line SW620	did not detect strand-break induction	no significant differences in toxicity
